This experiment deals with T1, MAPKAPK5 (Homo sapiens, UniProt Q8IW41).
T1 sequence (Q8IW41 1-471 isoform Q8IW41-2): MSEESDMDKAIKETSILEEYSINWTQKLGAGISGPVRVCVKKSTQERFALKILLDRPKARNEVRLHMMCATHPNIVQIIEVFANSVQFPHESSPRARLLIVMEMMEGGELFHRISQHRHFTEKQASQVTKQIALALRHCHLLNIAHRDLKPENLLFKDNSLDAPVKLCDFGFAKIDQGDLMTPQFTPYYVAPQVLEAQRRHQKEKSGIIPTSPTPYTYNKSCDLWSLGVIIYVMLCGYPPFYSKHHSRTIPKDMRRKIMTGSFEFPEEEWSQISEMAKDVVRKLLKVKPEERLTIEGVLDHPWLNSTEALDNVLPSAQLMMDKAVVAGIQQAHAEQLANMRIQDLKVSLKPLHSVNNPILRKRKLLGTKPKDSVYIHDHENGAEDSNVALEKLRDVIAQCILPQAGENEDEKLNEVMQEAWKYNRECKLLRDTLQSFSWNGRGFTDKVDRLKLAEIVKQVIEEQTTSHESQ
In words: MAPKAP-K5 FlashPlate kinase assay. Format: biochemical. The settings on record: 0.6 μM ATP, 30 minutes, room temperature. As for the experimental part: MAPKAP-K5 reactions are performed in FlashPlate format using 0.1 or 0.2 μCi 33P-ATP; 0.6 μM ATP; 1 mU MAPKAP-K5; 3 μM MAPKAP-K5 peptide substrate, incubated at room temperature for 30 minutes.
The MAPKAP-K5 kinase reaction is performed in a 384 well polypropylene plate (Matrix Technologies) and then transferred to a streptavidin-coated 384 well flashplate (Perkin-Elmer). To wells containing 2 μL test compound or standard inhibitor, 13 μL Enzyme mix or diluent are added using a Hydra (Robbins Scientific). Reactions are started by addition of 10 μL of [2.5×] substrate cocktail using a Multidrop (Thermo-Labsystems), to give final concentrations in the assay of: • 1 mU MAPKAP-K5 • 3 μM MAPKAP-K5 peptide substrate • 0.6 μM ATP • 0.004 μCi [33P]-γ-ATP/μL • 1× reaction buffer
Plates are incubated at room temperature for 30 minutes. Reactions are terminated by the addition of 25 μL EDTA (50 mM) to each well using a Micro-fill (Biotek). Reactions are transferred to a streptavidin-coated flashplate using a Zymark robotic system. Plates are incubated for 60 minutes at room temperature. All wells are washed 3 times with 100 μl phosphate buffered saline using a Tecan plate washer. Radioactivity is determined by scintillation counting of the flashplate (empty wells) on a Packard TopCount.
Enzyme Mix: • Enzyme • 50 mM Tris Hcl (pH 7.5) • 0.1 mM EGTA • 2 mM DTT • 1 mg/mL BSA
Reaction Buffer: • 50 mM Tris Hcl (pH 7.5) • 0.1 mM EGTA • 10 mM Magnesium acetate • 2 mM DTT
`CC(C)N1C[C@@H]2C[C@H]1CN2c1ccc(Nc2ncc(-c3ccc4c(c3)CNC4=O)n3ncnc23)cc1` [Compound 1, 5-{8-[4-((1S,4S)-5-Isopropyl-2,5-diaza-bicyclo[2.2.1]hept-2-yl)-phenylamino]-[1,2,4]triazolo[1,5-a]pyrazin-5-yl}-2,3-dihydro-isoindol-1-one]: the half-inhibitory concentration (IC50) (commonly the concentration at which inhibition is half-maximal) is 0.01 to 100 nM. Regarding `CC(C)N1C[C@@H]2C[C@H]1CN2c1ccc(Nc2ncc(-c3coc(C(N)=O)c3)n3ncnc23)cc1` [Compound 2, 4-{8-[4-((1S,4S)-5-Isopropyl-2,5-diaza-bicyclo[2.2.1]hept-2-yl)-phenylamino]-[1,2,4]triazolo[1,5-a]pyrazin-5-yl}-furan-2-carboxamide], the IC50 was in the range of 0.01 to 100 nM. Consider `CC(C)(C)N1C[C@@H]2C[C@H]1CN2c1ccc(Nc2ncc(-c3coc(C(N)=O)c3)n3ncnc23)cc1` [Compound 3, 4-{8-[4-((1S,4S)-5-tert-Butyl-2,5-diaza-bicyclo[2.2.1]hept-2-yl)-phenylamino]-[1,2,4]triazolo[1,5-a]pyrazin-5-yl}-furan-2-carboxamide], for which the IC50 was 0.01 to 100 nM. The same measure for `CC(C)N1C[C@@H]2C[C@H]1CN2c1ccc(Nc2ncc(-c3coc(C(N)=O)c3)n3ccnc23)cc1` [Compound 4, 4-{8-[4-((1S,4S)-5-Isopropyl-2,5-diaza-bicyclo[2.2.1]hept-2-yl)-phenylamino]-imidazo[1,2-a]pyrazin-5-yl}-furan-2-carboxamide]: 101 to 500 nM; for `CC(C)N1C[C@@H]2C[C@H]1CN2c1ccc(Nc2ncc(-c3cc(C(N)=O)n[nH]3)n3ncnc23)cc1` [Compound 5, 5-{8-(4-((1S,4S)-5-isopropyl-2,5-diazabicyclo[2.2.1]heptan-2-yl)phenyl-amino)-[1,2,4]triazolo[1,5-a]pyrazin-5-yl}-1H-pyrazole-3-carboxamide]: 101 to 500 nM.

With `CC(C)(C)N1C[C@@H]2C[C@H]1CN2c1ccc(Nc2ncc(-c3coc(C(N)=O)c3)n3ccnc23)cc1` [Compound 6], the half-maximal inhibitory concentration (IC50) was 101 to 500 nM.

Compound `CC(C)N1C[C@@H]2C[C@H]1CN2c1ccc(Nc2ncc(-c3cc[nH]c(=O)c3)n3ccnc23)cc1` [Compound 8, 4-{8-(4-((1S,4S)-5-isopropyl-2,5-diazabicyclo[2.2.1]heptan-2-yl)phenyl-amino)imidazo[1,2-a]pyrazin-5-yl}-1H-pyridin-2-one] yielded a concentration for half-maximal inhibition (IC50) of 101 to 500 nM. `CC(C)N1CC2CCC1CN2c1ccc(Nc2ncc(-c3coc(C(N)=O)c3)n3ncnc23)cc1` (stereo not shown) [Compound 9, 4-{8-(4-(5-isopropyl-2,5-diazabicyclo[2.2.2]octan-2-yl)phenylamino)[1,2,4]-triazolo[1,5-a]pyrazin-5-yl}-furan-2-carboxamide] had an IC50 of 0.01 to 100 nM. Compound `CC(C)N1CC2CCC(C1)N2c1ccc(Nc2ncc(-c3coc(C(N)=O)c3)n3ccnc23)cc1` [Compound 11, 4-{8-(4-(3-isopropyl-3,8-diazabicyclo[3.2.1]octan-8-yl)phenylamino)-imidazo[1,2-a]pyrazin-5-yl}-furan-2-carboxamide] gave an IC50 of 101 to 500 nM. Consider `CC(C)N1C2CCC1CN(c1ccc(Nc3ncc(-c4coc(C(N)=O)c4)n4ncnc34)cc1)C2` [Compound 12, 4-{8-(4-(8-isopropyl-3,8-diazabicyclo[3.2.1]octan-3-yl)phenylamino)[1,2,4]-triazolo[1,5-a]pyrazin-5-yl}-furan-2-carboxamide], for which the IC50 is 0.01 to 100 nM. The same measure for `CC(C)N1C[C@@H]2C[C@H]1CN2c1ccc(Nc2ncc(-c3cc(C(N)=O)n[nH]3)n3ncnc23)cn1` [Compound 15, 5-{8-(6-((1S,4S)-5-isopropyl-2,5-diazabicyclo[2.2.1]heptan-2-yl)pyridin-3-ylamino)-[1,2,4]triazolo[1,5-a]pyrazin-5-yl}-1H-pyrazole-3-carboxylic acid amide]: 101 to 500 nM; for `CC(C)(C)N1C[C@@H]2C[C@H]1CN2c1ccc(Nc2ncc(-c3ccc4c(c3)CNC4=O)n3ncnc23)cc1` [Compound 16, 5-{8-(4-((1S,4S)-5-tert-butyl-2,5-diazabicyclo[2.2.1]heptan-2-yl)phenylamino)-[1,2,4]triazolo-[1,5-a]pyrazin-5-yl}-2,3-dihydro-isoindol-1-one]: 101 to 500 nM; for `CC(C)(C)N1C[C@@H]2C[C@H]1CN2c1ccc(Nc2ncc(-c3cc(C(N)=O)n[nH]3)n3ncnc23)cc1` [Compound 17, 5-{8-(4-((1S,4S)-5-tert-butyl-2,5-diazabicyclo[2.2.1]heptan-2-yl)phenyl-amino)-[1,2,4]triazolo[1,5-a]pyrazin-5-yl}-1H-pyrazole-3-carboxylic acid amide]: 101 to 500 nM. In the case of `CC(C)N1C[C@@H]2C[C@H]1CN2c1ccc(Nc2ncc(-c3ccc4c(c3)CNC4=O)n3ncnc23)cn1` [Compound 18, 5-{8-(6-((1S,4S)-5-isopropyl-2,5-diazabicyclo[2.2.1]heptan-2-yl)pyridin-3-ylamino)-[1,2,4]triazolo[1,5-a]pyrazin-5-yl}-2,3-dihydro-isoindol-1-one], the IC50 is 101 to 500 nM. The compound `CCOc1cc(-c2cnc(Nc3ccc(N4C[C@@H]5C[C@H]4CN5C(C)C)cc3)c3ncnn23)ccn1` [Compound 19, 5-(2-ethoxypyridin-4-yl)-N-(4-((1S,4S)-5-isopropyl-2,5-diazabicyclo[2.2.1]heptan-2-yl)phenyl)-[1,2,4]triazolo[1,5-a]pyrazin-8-amine] had an IC50 above 1000 nM. The compound `CC(C)N1C[C@@H]2C[C@H]1CN2c1ccc(Nc2ncc(-c3cc[nH]c(=O)c3)n3ncnc23)cc1` [Compound 20, 4-(8-(4-((1S,4S)-5-isopropyl-2,5-diazabicyclo[2.2.1]heptan-2-yl)phenylamino)-[1,2,4]triazolo[1,5-a]pyrazin-5-yl)pyridin-2(1H)-one] came in with an IC50 above 1000 nM. Compound `CCOC(=O)c1cc(-c2cnc(Nc3ccc(N4C[C@@H]5C[C@H]4CN5C(C)C)cc3)c3ncnn23)[nH]n1` [Compound 21, Ethyl 5-(8-(4-((1S,4S)-5-isopropyl-2,5-diazabicyclo[2.2.1]heptan-2-yl)phenylamino)-[1,2,4]triazolo[1,5-a]pyrazin-5-yl)-1H-pyrazole-3-carboxylate] showed an IC50 above 1000 nM.

Regarding `CCOc1cc(-c2cnc(Nc3ccc(N4C[C@@H]5C[C@H]4CN5C(C)C)cc3)c3nccn23)ccn1` [Compound 22, 5-(2-ethoxypyridin-4-yl)-N-(4-((1S,4S)-5-isopropyl-2,5-diazabicyclo[2.2.1]heptan-2-yl)phenyl)imidazo[1,2-a]pyrazin-8-amine], the IC50 was above 1000 nM. Next, `CC(C)N1C[C@@H]2C[C@H]1CN2c1ccc(Nc2ncc(-c3noc(C(N)=O)n3)n3ncnc23)cc1` [Compound 23, 3-(8-(4-((1S,4S)-5-isopropyl-2,5-diazabicyclo[2.2.1]heptan-2-yl)phenylamino)-[1,2,4]triazolo[1,5-a]pyrazin-5-yl)-1,2,4-oxadiazole-5-carboxamide]: above 1000 nM; `CC(C)N1C[C@@H]2C[C@H]1CN2c1cccc(Nc2ncc(-c3coc(C(N)=O)c3)n3ncnc23)c1` [Compound 24, 4-(8-(3-((1S,4S)-5-isopropyl-2,5-diazabicyclo[2.2.1]heptan-2-yl)phenylamino)-[1,2,4]triazolo[1,5-a]pyrazin-5-yl)furan-2-carboxamide]: 0.01 to 100 nM; `CC(C)N1C[C@@H]2C[C@H]1CN2c1cccc(Nc2ncc(-c3coc(C(N)=O)c3)n3ccnc23)c1` [Compound 25, 4-(8-(3-((1S,4S)-5-isopropyl-2,5-diazabicyclo[2.2.1]heptan-2-yl)phenylamino)imidazo[1,2-a]pyrazin-5-yl)furan-2-carboxamide]: 101 to 500 nM.

Turning to `CC(C)N1C[C@@H]2C[C@H]1CN2c1cccc(Nc2ncc(-c3ccc4c(c3)CNC4=O)n3ncnc23)c1` [Compound 26, 5-(8-(3-((1S,4S)-5-isopropyl-2,5-diazabicyclo[2.2.1]heptan-2-yl)phenylamino)-[1,2,4]triazolo[1,5-a]pyrazin-5-yl)isoindolin-1-one], the IC50 lay in the range of 101 to 500 nM.

(Values after US8012983B2, “Substituted triazolopyrazines useful for the treatment of degenerative and inflammatory diseases” (Galapagos NV, priority 2008, dated 2011).)
